Results taken from ChEMBL document CHEMBL2150993, “Substituted thiazoles VII. Synthesis and antitumor activity of certain 2-(substituted amino)-4-phenyl-1,3-thiazole analogs” (2012).
Active and inactive are the calls of the source. The rule behind the calls is not given here.

What was measured:
Format in all cases: functional
SN12C = experiment: Growth inhibition of human SN12C cells after 48 hrs by cell counting analysis; settings: at 10 µM
EKVX = experiment: Growth inhibition of human EKVX cells after 48 hrs by cell counting analysis; settings: at 10 µM
MOLT-4 = experiment: Growth inhibition of human MOLT4 cells after 48 hrs by cell counting analysis; settings: at 10 µM
NCI-H226 = experiment: Growth inhibition of human NCI-H226 cells after 48 hrs by cell counting analysis; settings: at 10 µM
T47D = experiment: Growth inhibition of human T47D cells after 48 hrs by cell counting analysis; settings: at 10 µM
[1] = Antiproliferative activity against human ovarian cancer cells after 48 hrs by cell counting analysis; settings: Cancer cell lines
HT-29 = experiment: Growth inhibition of human HT-29 cells after 48 hrs by cell counting analysis; settings: at 10 µM
UACC-62 = experiment: Growth inhibition of human UACC62 cells after 48 hrs by cell counting analysis; settings: at 10 µM
CCRF-CEM = experiment: Growth inhibition of human CCRF-CEM cells after 48 hrs by cell counting analysis; settings: at 10 µM
SK-OV-3 = experiment: Growth inhibition of human SKOV3 cells after 48 hrs by cell counting analysis; settings: at 10 µM
[2] = Antiproliferative activity against human leukemia cells after 48 hrs by cell counting analysis
SK-MEL-28 = experiment: Growth inhibition of human SK-MEL-28 cells after 48 hrs by cell counting analysis; settings: at 10 µM
SF-295 = experiment: Growth inhibition of human SF295 cells after 48 hrs by cell counting analysis; settings: at 10 µM
MDA-MB-468 = experiment: Growth inhibition of human MDA-MB-468 cells after 48 hrs by cell counting analysis
SW-620 = experiment: Growth inhibition of human SW620 cells after 48 hrs by cell counting analysis; settings: at 10 µM
OVCAR-8 = experiment: Growth inhibition of human OVCAR8 cells after 48 hrs by cell counting analysis; settings: at 10 µM
OVCAR-3 = experiment: Growth inhibition of human OVCAR3 cells after 48 hrs by cell counting analysis; settings: at 10 µM
[3] = Antiproliferative activity against human non-small cell lung cancer cells after 48 hrs by cell counting analysis; settings: Cancer cell lines
K562 = experiment: Growth inhibition of human K562 cells after 48 hrs by cell counting analysis; settings: at 10 µM
SF-539 = experiment: Growth inhibition of human SF539 cells after 48 hrs by cell counting analysis; settings: at 10 µM
LOX IMVI = experiment: Growth inhibition of human LOXIMVI cells after 48 hrs by cell counting analysis; settings: at 10 µM
SK-MEL-5 = experiment: Growth inhibition of human SK-MEL-5 cells after 48 hrs by cell counting analysis; settings: at 10 µM
HCT-15 = experiment: Growth inhibition of human HCT15 cells after 48 hrs by cell counting analysis; settings: at 10 µM
SR = experiment: Growth inhibition of human SR cells after 48 hrs by cell counting analysis; settings: at 10 µM
NCI-H23 = experiment: Growth inhibition of human NCI-H23 cells after 48 hrs by cell counting analysis
NCI-H522 = experiment: Growth inhibition of human NCI-H522 cells after 48 hrs by cell counting analysis; settings: at 10 µM
[4] = Growth inhibition of human NCI-ADR-RES cells after 48 hrs by cell counting analysis; settings: at 10 µM
CAKI-1 = experiment: Growth inhibition of human Caki1 cells after 48 hrs by cell counting analysis; settings: at 10 µM
HCC 2998 = experiment: Growth inhibition of human HCC2998 cells after 48 hrs by cell counting analysis; settings: at 10 µM
HCT-116 = experiment: Growth inhibition of human HCT116 cells after 48 hrs by cell counting analysis; settings: at 10 µM
MDA-MB-231 = experiment: Growth inhibition of human MDA-MB-231 cells after 48 hrs by cell counting analysis; settings: at 10 µM
HL-60 = experiment: Growth inhibition of human HL60 cells after 48 hrs by cell counting analysis; settings: at 10 µM
[5] = Antiproliferative activity against human CNS cancer cells after 48 hrs by cell counting analysis; settings: Cancer cell lines
ACHN = experiment: Growth inhibition of human ACHN cells after 48 hrs by cell counting analysis; settings: at 10 µM
MDA-MB-435 = experiment: Growth inhibition of human MDA-MB-435 cells after 48 hrs by cell counting analysis; settings: at 10 µM
HOP-92 = experiment: Growth inhibition of human HOP92 cells after 48 hrs by cell counting analysis; settings: at 10 µM
TK-10 = experiment: Growth inhibition of human TK10 cells after 48 hrs by cell counting analysis
MCF7 = experiment: Growth inhibition of human MCF7 cells after 48 hrs by cell counting analysis; settings: at 10 µM
UO-31 = experiment: Growth inhibition of human UO31 cells after 48 hrs by cell counting analysis; settings: at 10 µM
OVCAR-5 = experiment: Growth inhibition of human OVCAR5 cells after 48 hrs by cell counting analysis; settings: at 10 µM
BT-549 = experiment: Growth inhibition of human BT549 cells after 48 hrs by cell counting analysis; settings: at 10 µM
IGROV-1 = experiment: Growth inhibition of human IGROV1 cells after 48 hrs by cell counting analysis; settings: at 10 µM
HOP-62 = experiment: Growth inhibition of human HOP62 cells after 48 hrs by cell counting analysis; settings: at 10 µM
OVCAR-4 = experiment: Growth inhibition of human OVCAR4 cells after 48 hrs by cell counting analysis; settings: at 10 µM
UACC-257 = experiment: Growth inhibition of human UACC257 cells after 48 hrs by cell counting analysis; settings: at 10 µM
KM12 = experiment: Growth inhibition of human KM12 cells after 48 hrs by cell counting analysis; settings: at 10 µM
U-251 = experiment: Growth inhibition of human U251 cells after 48 hrs by cell counting analysis; settings: at 10 µM
Malme-3M = experiment: Growth inhibition of human MALME-3M cells after 48 hrs by cell counting analysis; settings: at 10 µM
SNB-75 = experiment: Growth inhibition of human SNB75 cells after 48 hrs by cell counting analysis; settings: at 10 µM
RPMI-8226 = experiment: Growth inhibition of human RPMI8226 cells after 48 hrs by cell counting analysis; settings: at 10 µM
M14 = experiment: Growth inhibition of human M14 cells after 48 hrs by cell counting analysis; settings: at 10 µM
SK-MEL-2 = experiment: Growth inhibition of human SK-MEL-2 cells after 48 hrs by cell counting analysis; settings: at 10 µM
[6] = Antiproliferative activity against human renal cancer cells after 48 hrs by cell counting analysis; settings: Cancer cell lines
RXF 393 = experiment: Growth inhibition of human RXF393 cells after 48 hrs by cell counting analysis; settings: at 10 µM
[7] = Antiproliferative activity against human melanoma cells after 48 hrs by cell counting analysis
[8] = Antiproliferative activity against human prostate cancer cells after 48 hrs by cell counting analysis; settings: Cancer cell lines
[9] = Antiproliferative activity against human colon cancer cells after 48 hrs by cell counting analysis; settings: Cancer cell lines
[10] = Growth inhibition of human NCI-322M cells after 48 hrs by cell counting analysis; settings: at 10 µM
PC-3 = experiment: Growth inhibition of human PC3 cells after 48 hrs by cell counting analysis; settings: at 10 µM
A549 = experiment: Growth inhibition of human A549 cells after 48 hrs by cell counting analysis; settings: at 10 µM
SNB-19 = experiment: Growth inhibition of human SNB19 cells after 48 hrs by cell counting analysis; settings: at 10 µM
[11] = Antiproliferative activity against human breast cancer cells after 48 hrs by cell counting analysis; settings: Cancer cell lines
SF-268 = experiment: Growth inhibition of human SF268 cells after 48 hrs by cell counting analysis; settings: at 10 µM
[12] = read-out: LC50 (the source's name)

Cc1ccc(-c2csc(NC(=O)CCCl)n2)cc1
growth inhibition (GI) (SN12C): 33.2% | growth inhibition (GI) (EKVX): 50.3% | growth inhibition (GI) (MOLT-4): 43.3% | growth inhibition (GI) (NCI-H226): 22% | growth inhibition (GI) (T47D): 55.2% | GI50 [1]: 4.8 µM | TGI [1]: 31.3 µM | CC50 [1, 12]: 61.1 µM | growth inhibition (GI) (HT-29): 21% | growth inhibition (GI) (UACC-62): 41.8% | growth inhibition (GI) (CCRF-CEM): 88.3% | growth inhibition (GI) (SK-OV-3): 63% | GI50 [2]: 2 µM | TGI [2]: 21.5 µM | CC50 [2, 12]: > 100 µM | growth inhibition (GI) (SK-MEL-28): 31% | growth inhibition (GI) (SF-295): 30.2% | growth inhibition (GI) (MDA-MB-468): Active | growth inhibition (GI) (SW-620): 65.2% | growth inhibition (GI) (OVCAR-8): 60.6% | growth inhibition (GI) (OVCAR-3): 45.3% | GI50 [3]: 6.3 µM | TGI [3]: 20.3 µM | CC50 [3, 12]: 61.5 µM | growth inhibition (GI) (K562): 21.1% | growth inhibition (GI) (SF-539): 25.2% | growth inhibition (GI) (LOX IMVI): 45.1% | growth inhibition (GI) (SK-MEL-5): 16.6% | growth inhibition (GI) (HCT-15): 25.9% | growth inhibition (GI) (SR): 88.5% | growth inhibition (GI) (NCI-H23): Active | growth inhibition (GI) (NCI-H522): 41% | growth inhibition (GI) [4]: 55.8% | growth inhibition (GI) (CAKI-1): 55.6% | growth inhibition (GI) (HCC 2998): 22.5% | growth inhibition (GI) (HCT-116): 46.2% | growth inhibition (GI) (MDA-MB-231): 53.5% | growth inhibition (GI) (HL-60): 41.4% | GI50 [5]: 4.8 µM | TGI [5]: 17.6 µM | CC50 [5, 12]: 50.2 µM | growth inhibition (GI) (ACHN): 45.1% | growth inhibition (GI) (MDA-MB-435): 36.9% | growth inhibition (GI) (HOP-92): 50.5% | growth inhibition (GI) (TK-10): Active | growth inhibition (GI) (MCF7): 65.9% | growth inhibition (GI) (UO-31): 61.3% | growth inhibition (GI) (OVCAR-5): 29.3% | growth inhibition (GI) (BT-549): 72.3% | growth inhibition (GI) (IGROV-1): 63.1% | growth inhibition (GI) (HOP-62): 16.2% | growth inhibition (GI) (OVCAR-4): 81.5% | growth inhibition (GI) (UACC-257): 41.3% | growth inhibition (GI) (KM12): 82.4% | growth inhibition (GI) (U-251): 48.5% | growth inhibition (GI) (Malme-3M): 29.1% | growth inhibition (GI) (SNB-75): 34.6% | growth inhibition (GI) (RPMI-8226): 80.9% | growth inhibition (GI) (M14): 56.1% | growth inhibition (GI) (SK-MEL-2): 54.2% | GI50 [6]: 2.8 µM | TGI [6]: 12.5 µM | CC50 [6, 12]: 39.3 µM | growth inhibition (GI) (RXF 393): 43.8% | GI50 [7]: 4.2 µM | TGI [7]: 13.4 µM | CC50 [7, 12]: 44.3 µM | GI50 [8]: 3.8 µM | TGI [8]: 16.8 µM | CC50 [8, 12]: 63.4 µM | GI50 [9]: 3.2 µM | TGI [9]: 11.9 µM | CC50 [9, 12]: 39.2 µM | growth inhibition (GI) [10]: 55.9% | growth inhibition (GI) (PC-3): 69.5% | growth inhibition (GI) (A549): 77.3% | growth inhibition (GI) (SNB-19): 73.1% | GI50 [11]: 3.3 µM | TGI [11]: 32.3 µM | CC50 [11, 12]: 62.1 µM | growth inhibition (GI) (SF-268): 46.3%
